Measured values: patent publication US20060063759A1, “Tricyclic steroid hormone nuclear receptor modulators” (priority 2002, published 2006)
pKi: −log10 of the molar value.

How the values were obtained:
[1] = molecular target: T1, human MR (Homo sapiens, UniProt P08235); test: Mineralocorticoid Receptor Binding Assay ([3H]-aldosterone); settings: [3H]-aldosterone binding, human MR expressed in Sf9 cells; read-out: MR Ki
T1 construct: The full length human MR gene is cloned from a human kidney or human brain cDNA library; His tag from the pAcHLT vector (own knowledge); made in house; host or cells: Sf9 insect cells (baculovirus, pAcHLT transfer vector)
T1 sequence (P08235 1-984): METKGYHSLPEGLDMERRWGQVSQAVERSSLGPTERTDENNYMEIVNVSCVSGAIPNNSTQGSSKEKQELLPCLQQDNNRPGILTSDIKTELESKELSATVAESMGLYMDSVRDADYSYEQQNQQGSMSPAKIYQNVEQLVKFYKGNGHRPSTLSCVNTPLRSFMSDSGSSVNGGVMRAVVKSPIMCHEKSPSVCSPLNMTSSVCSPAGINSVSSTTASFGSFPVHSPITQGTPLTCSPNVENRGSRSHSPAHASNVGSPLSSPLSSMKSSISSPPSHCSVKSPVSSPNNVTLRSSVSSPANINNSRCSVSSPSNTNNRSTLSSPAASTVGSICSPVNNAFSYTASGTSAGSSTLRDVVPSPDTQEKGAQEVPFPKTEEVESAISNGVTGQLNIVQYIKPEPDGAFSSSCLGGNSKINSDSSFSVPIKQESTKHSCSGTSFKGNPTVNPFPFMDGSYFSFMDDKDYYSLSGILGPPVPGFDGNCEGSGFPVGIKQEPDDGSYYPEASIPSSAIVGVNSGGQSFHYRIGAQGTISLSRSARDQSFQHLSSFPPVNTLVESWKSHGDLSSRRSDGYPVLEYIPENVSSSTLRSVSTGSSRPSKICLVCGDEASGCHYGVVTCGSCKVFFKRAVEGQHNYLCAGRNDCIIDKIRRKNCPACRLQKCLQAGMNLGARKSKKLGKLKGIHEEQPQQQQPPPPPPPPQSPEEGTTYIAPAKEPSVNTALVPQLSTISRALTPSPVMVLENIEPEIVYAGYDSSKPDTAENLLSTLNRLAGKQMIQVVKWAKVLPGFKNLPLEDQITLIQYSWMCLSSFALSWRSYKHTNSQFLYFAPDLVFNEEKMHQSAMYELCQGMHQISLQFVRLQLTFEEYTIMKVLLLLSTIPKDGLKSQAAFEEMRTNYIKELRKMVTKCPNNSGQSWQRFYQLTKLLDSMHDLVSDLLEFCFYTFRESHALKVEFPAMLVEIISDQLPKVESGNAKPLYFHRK
Summary of the method: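 Lysate supernatant of Sf9 cells expressing full-length human MR (20-25 μg protein) was incubated with 0.5 nM [3H]-aldosterone and test compound in molybdate/Tris/phosphate/glycerol buffer, pH 7.5, ~16 h at 4 °C. Bound ligand was filtered and counted by scintillation; IC50 is the concentration halving [3H]-aldosterone binding.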

[2] = molecular target: T2, glucocorticoid receptor (Homo sapiens, UniProt P04150); test: Glucocorticoid Receptor Binding Assay ([3H]-dexamethasone, A549 cell extract); settings: [3H]-dexamethasone binding, read-out: GR Ki
T2 construct: containing 50-200 ug of A549 cell extract and 1.86 nM [^3H]-dexamethasone; host or cells: A549 human lung epithelial cells (sonicated cell extract)
T2 sequence (P04150 1-777): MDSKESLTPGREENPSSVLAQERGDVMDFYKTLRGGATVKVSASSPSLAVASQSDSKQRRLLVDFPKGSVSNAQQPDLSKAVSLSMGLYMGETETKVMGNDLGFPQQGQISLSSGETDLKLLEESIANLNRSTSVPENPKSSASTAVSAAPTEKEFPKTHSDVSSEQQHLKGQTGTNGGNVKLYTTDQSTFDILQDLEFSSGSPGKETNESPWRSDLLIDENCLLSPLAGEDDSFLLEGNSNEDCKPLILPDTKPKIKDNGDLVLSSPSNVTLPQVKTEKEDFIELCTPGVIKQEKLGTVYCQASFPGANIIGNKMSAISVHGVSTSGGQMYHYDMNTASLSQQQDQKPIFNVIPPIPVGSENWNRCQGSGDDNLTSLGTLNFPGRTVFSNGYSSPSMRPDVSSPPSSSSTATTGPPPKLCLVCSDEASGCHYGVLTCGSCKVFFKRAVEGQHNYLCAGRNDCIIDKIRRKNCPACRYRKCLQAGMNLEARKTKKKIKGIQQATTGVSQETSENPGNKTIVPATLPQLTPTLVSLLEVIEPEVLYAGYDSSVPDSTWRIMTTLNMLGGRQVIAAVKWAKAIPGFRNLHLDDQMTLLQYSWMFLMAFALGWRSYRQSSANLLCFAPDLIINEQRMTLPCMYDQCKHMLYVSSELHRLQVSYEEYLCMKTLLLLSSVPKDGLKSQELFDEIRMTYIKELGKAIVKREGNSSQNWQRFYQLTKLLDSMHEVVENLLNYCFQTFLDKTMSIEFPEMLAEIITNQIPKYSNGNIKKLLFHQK
Summary of the method: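 A549 cell extract (50–200 ug) incubated with 1.86 nM [3H]-dexamethasone and test compound for 16 h at 4 °C in Tris-HCl pH 7.2 buffer with glycerol and molybdate. Unbound radioligand removed by dextran-coated charcoal, then supernatant bound counts measured by scintillation.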

O=c1[nH]c2cc(/C=C3\c4ccccc4COc4cc(F)ccc43)ccc2s1 [Example 637]
pKi [1]: > 6.30 | pKi [2]: > 6.30

CC(C)n1c(=O)[nH]c2cc(/C=C3/c4ccccc4COc4cc(F)ccc43)ccc21 [Example 638]
pKi [1]: > 6.30 | pKi [2]: > 6.00

COc1ccc2c(c1)OCc1ccccc1C2=Cc1ccc2[nH]c(=O)[nH]c2c1 [Example 639]
pKi [1]: > 6.30 | pKi [2]: > 5.00

Fc1ccc2c(c1)OCc1ccccc1C2=Cc1cccc(C(F)F)c1 [Example 640]
pKi [1]: > 6.30 | pKi [2]: > 6.30

O=c1[nH]c2ccc(/C=C3\c4ccc(Cl)cc4COc4ccccc43)cc2[nH]1 [Example 641]
pKi [1]: > 6.30 | pKi [2]: > 6.00

O=c1[nH]c2ccc(/C=C3\c4ccccc4COc4c(F)cccc43)cc2[nH]1 [Example 642]
pKi [1]: > 6.30 | pKi [2]: > 6.00

O=c1[nH]c2ccc(/C=C3\c4ccccc4COc4cc(C(F)(F)F)ccc43)cc2[nH]1 [Example 643]
pKi [1]: > 6.30 | pKi [2]: > 5.00

O=c1[nH]c2ccc(C=C3c4ccc(F)cc4COc4cc(F)ccc43)cc2[nH]1 [Example 644]
pKi [1]: > 6.30 | pKi [2]: > 6.00

O=c1[nH]c2cc(/C=C3\c4ccccc4COc4cc(F)ccc43)ccc2n1CCN1CCCC1 [Example 646]
pKi [1]: > 6.30 | pKi [2]: > 6.00

O=c1[nH]c2cc(/C=C3\c4ccccc4COc4cc(Cl)ccc43)ccc2n1CCN1CCOCC1 [Example 647]
pKi [1]: > 6.30 | pKi [2]: > 6.00

COc1cccc(C=C2c3ccccc3CNc3ccccc32)c1 [Example 650]
pKi [1]: > 6.30 | pKi [2]: > 6.30

CN1C(=O)c2ccccc2C(=Cc2cccc(N)c2)c2ccccc21 [Example 651]
pKi [1]: > 6.30 | pKi [2]: > 6.00

CN1C(=O)c2ccccc2C(=Cc2cccc(NS(C)(=O)=O)c2)c2ccccc21 [Example 652]
pKi [1]: > 6.30 | pKi [2]: > 5.00

CN1Cc2ccccc2C(=Cc2cccc(NS(C)(=O)=O)c2)c2ccccc21 [Example 653]
pKi [1]: > 6.30 | pKi [2]: > 6.00

COc1cccc(C=C2c3cc(Cl)ccc3NC(=O)c3ccccc32)c1 [Example 654]
pKi [1]: > 6.30 | pKi [2]: > 6.30

COc1cccc(C=C2c3ccccc3C(=O)N(C)c3ccc(Cl)cc32)c1 [Example 656]
pKi [1]: > 6.30 | pKi [2]: > 6.30

COC(=O)c1ccc2c(c1)/C(=C\c1cccc(NS(C)(=O)=O)c1)c1ccccc1CO2 [Example 659]
pKi [1]: > 6.00 | pKi [2]: > 5.00

COc1ccc2c(c1)OCc1ccccc1/C2=C/c1cccc(NS(C)(=O)=O)c1 [Example 660]
pKi [1]: > 6.30 | pKi [2]: > 6.30

COc1ccc2c(c1)OCc1ccccc1/C2=C\c1cccc(NS(C)(=O)=O)c1 [Example 661]
pKi [1]: > 6.30 | pKi [2]: > 6.30

CS(=O)(=O)Nc1cccc(/C=C2/c3ccccc3COc3c(Cl)cccc32)c1 [Example 662]
pKi [1]: > 6.30 | pKi [2]: > 6.30

CS(=O)(=O)Nc1cccc(/C=C2\c3ccccc3COc3c(Cl)cccc32)c1 [Example 663]
pKi [1]: > 6.30 | pKi [2]: > 6.30

CS(=O)(=O)Nc1cccc(/C=C2/c3ccccc3COc3cc(Cl)ccc32)c1 [Example 664]
pKi [1]: > 6.30 | pKi [2]: > 6.30

CS(=O)(=O)Nc1cccc(/C=C2\c3ccccc3COc3cc(Cl)ccc32)c1 [Example 665]
pKi [1]: > 6.30 | pKi [2]: > 6.30

CN(c1cccc(/C=C2/c3ccccc3COc3c(Cl)cccc32)c1)S(C)(=O)=O [Example 666]
pKi [1]: > 6.30 | pKi [2]: > 6.30

CN(c1cccc(/C=C2\c3ccccc3COc3cc(Cl)ccc32)c1)S(C)(=O)=O [Example 667]
pKi [1]: > 6.00 | pKi [2]: > 5.00

COc1cc2c(cc1Br)/C(=C/c1cccc(NS(C)(=O)=O)c1)c1ccccc1CO2 [Example 668]
pKi [1]: > 6.30 | pKi [2]: > 6.00

COc1cccc2c1OCc1ccccc1/C2=C/c1cccc(NS(C)(=O)=O)c1 [Example 669]
pKi [1]: > 6.30 | pKi [2]: > 6.30

CS(=O)(=O)Nc1cccc(/C=C2\c3ccccc3COc3c(F)cccc32)c1 [Example 670]
pKi [1]: > 6.30 | pKi [2]: > 6.30

CS(=O)(=O)Nc1cccc(/C=C2/c3ccccc3COc3ccc(F)cc32)c1 [Example 671]
pKi [1]: > 6.30 | pKi [2]: > 6.30

CS(=O)(=O)Nc1cccc(/C=C2\c3ccccc3COc3ccc(F)cc32)c1 [Example 672]
pKi [1]: > 6.30 | pKi [2]: > 6.30

Cc1cccc2c1OCc1ccccc1/C2=C/c1cccc(NS(C)(=O)=O)c1 [Example 673]
pKi [1]: > 6.30 | pKi [2]: > 6.30

Cc1cccc2c1OCc1ccccc1/C2=C\c1cccc(NS(C)(=O)=O)c1 [Example 674]
pKi [1]: > 6.30 | pKi [2]: > 6.30

Cc1ccc2c(c1)OCc1ccccc1/C2=C/c1cccc(NS(C)(=O)=O)c1 [Example 675]
pKi [1]: > 6.30 | pKi [2]: > 6.30

Cc1ccc2c(c1)OCc1ccccc1/C2=C\c1cccc(NS(C)(=O)=O)c1 [Example 676]
pKi [1]: > 6.30 | pKi [2]: > 6.30

Cc1ccc2c(c1)/C(=C\c1cccc(NS(C)(=O)=O)c1)c1ccccc1CO2 [Example 677]
pKi [1]: > 6.30 | pKi [2]: > 6.30

COc1ccc2c(c1)/C(=C/c1cccc(NS(C)(=O)=O)c1)c1ccccc1CO2 [Example 679]
pKi [1]: > 6.30 | pKi [2]: > 6.30

CS(=O)(=O)Nc1cccc(/C=C2/c3ccccc3COc3ccc(Cl)cc32)c1 [Example 680]
pKi [1]: > 6.30 | pKi [2]: > 6.00

CS(=O)(=O)Nc1cccc(/C=C2\c3ccccc3COc3ccc(Cl)cc32)c1 [Example 681]
pKi [1]: > 6.30 | pKi [2]: > 6.30

CS(=O)(=O)Nc1cccc(/C=C2/c3ccccc3COc3cc(C(F)(F)F)ccc32)c1 [Example 682]
pKi [1]: > 6.30 | pKi [2]: > 6.30

CS(=O)(=O)Nc1cccc(/C=C2\c3ccccc3COc3cc(C(F)(F)F)ccc32)c1 [Example 683]
pKi [1]: > 6.30 | pKi [2]: > 6.30

COc1ccc2c(c1OC)CSc1ccccc1/C2=C/c1cccc(NS(C)(=O)=O)c1 [Example 684]
pKi [1]: > 6.30 | pKi [2]: > 6.30

COc1ccc2c(c1OC)CSc1ccccc1/C2=C\c1cccc(NS(C)(=O)=O)c1 [Example 685]
pKi [1]: > 6.30 | pKi [2]: > 6.30

COc1cc2c(c(OC)c1)/C(=C\c1cccc(NS(C)(=O)=O)c1)c1ccccc1SC2 [Example 687]
pKi [1]: > 6.30 | pKi [2]: > 6.30

COc1ccc(C=C2c3ccccc3CSc3ccccc32)cn1 [Example 688]
pKi [1]: > 6.30 | pKi [2]: > 6.30

CC(=O)Nc1cccc(/C=C2\c3ccccc3CSc3ccccc32)c1 [Example 691]
pKi [1]: > 6.00 | pKi [2]: > 6.30

COc1ccc2c(c1)CSc1ccccc1/C2=C/c1cccc(NS(C)(=O)=O)c1 [Example 692]
pKi [1]: > 6.30 | pKi [2]: > 6.30

CS(=O)(=O)Nc1cccc(C=C2c3ccc(Cl)cc3CSc3ccccc32)c1 [Example 693]
pKi [1]: > 6.30 | pKi [2]: > 6.30
